Experimental data from patent US20150306096A1, “8'-HYDROXY-DIHYDROERGOTAMINE COMPOUNDS AND COMPOSITIONS” (MAP Pharmaceuticals, Inc., priority 2012, published 2015).

How the values were obtained:
Test in all cases: Radioligand competition binding and kinetics, CHO-K1 membranes
human 5-HT1D receptor = molecular target: T1, human 5-HT1D receptor (Homo sapiens, UniProt P28221); settings: 5-HT1D
T1 construct: purchased Euroscreen; host or cells: CHO-K1
Procedure: (§1) For kinetics of radioligand competitive binding, serial dilutions were performed from master solution in 100% DMSO to obtain intermediate concentrations 200-fold higher than the concentrations to be tested. Each test sample was diluted 100-fold in the assay buffer and dispensed into the test plate.
5-HT1D Radioligand Binding Assay
Assay buffer: 50 mM Tris (pH 7.4), 4 mM CaCl2, 0.1% ascorbic acid
Washing buffer: 50 mM Tris (pH 7.4)
Membrane: recombinant CHO-K1-5-HT1D membranes thawed on ice and diluted in assay buffer (10 μg/well)
(§2) Ligand: 5-HT (Sigma, H-9523)
Radioligand: [^3H]-CT (Perkin Elmer, TRK1038, diluted in assay buffer for a final concentration of 0.5 nM) Filter plate: GF/B Unifilter plate (Perkin Elmer, 6005177) presoaked in 0.5% PEI for 2 hours at RT.
(§3) Determination of the Kon constant. Radioligand association kinetics on each receptor were performed by adding in the wells of a 96 well plate 50 μL of radioligand and 50 μL of membrane extracts. The samples were incubated for the times reported in Table 3 below at a temperature optimized for each receptor and filtered over a filter plate. After washing the filters 5 times with 0.5 mL of ice-cold washing buffer, 50 μL of Microscint 20 (Packard) were added to the filters and the plates were incubated 15 min on an orbital shaker and then counted for 1 min/well. This allowed determination of the kobs for each radioligand. Association kinetics were performed at 5 different radioligand concentrations optimized for each receptor (see Table 3 below) to determine 5 different kobs. The different kobs were then plotted against the [radioligand] and the K. was calculated using the following equation: kon=(kobs−koff)[radioligand].
(§4) Determination of the Koff constant. Radioligand dissociation kinetics on each receptor were performed by adding in the wells of a 96 well plate 45 μL of radioligand and 45 μL of membrane extracts. The samples were incubated as reported in Table 4 below at a temperature optimized for each receptor until binding equilibrium was reached as determined by the association kinetics experiment. Then, 100 μL of cold competitor (reference ligand) were added at a 200 fold excess (final concentration) for the times reported in Table 4 at the optimized temperature. The samples were then filtered over a filter plate. After washing the filters 5 times with 0.5 mL of ice-cold washing buffer, 50 μL of Microscint 20 (Packard) were added to the filters and the plates were incubated 15 min on an orbital shaker and then counted for 1 min/well. This allowed determination of the koff for each radioligand.
Determination of IC50 and Ki constant for each test compound. Radioligand competition binding on each receptor were performed by adding in the wells of a 96 well plate […] of test compound at increasing concentration as reported in Table 5 below, 25 μL of radioligand and 25 μL of membrane extracts. The samples were incubated for 60 min (or 4 hours for a second experiment on 5-HT2B receptors) at a temperature optimized for each receptor and then filtered over a filter plate. After washing the filters 5 times with 0.5 mL of ice-cold washing buffer, 50 μL of Microscint 20 (Packard) were added to the filters and the plates were incubated 15 min on an orbital shaker and then counted for 1 min/well. The test compounds were tested in duplicate at the nanomolar concentrations reported below in Table 5.
Determination of kon and koff constants for each test compound. Each compound was first assessed in a pilot experiment to evaluate its effect on the kinetic binding of each receptor-radioligand pair. These pilot experiments were performed at on compound concentration and were composed of 10 time-points measurements in duplicate (2, 5, 10, 20, 30, 45, 60, 90, 120 and 150 minutes).

human 5-HT1A receptor = molecular target: T2, human 5-HT1A receptor (Homo sapiens, UniProt P08908); settings: 5-HT1A
T2 construct: purchased Euroscreen; host or cells: CHO-K1
T2 sequence (P08908 1-422): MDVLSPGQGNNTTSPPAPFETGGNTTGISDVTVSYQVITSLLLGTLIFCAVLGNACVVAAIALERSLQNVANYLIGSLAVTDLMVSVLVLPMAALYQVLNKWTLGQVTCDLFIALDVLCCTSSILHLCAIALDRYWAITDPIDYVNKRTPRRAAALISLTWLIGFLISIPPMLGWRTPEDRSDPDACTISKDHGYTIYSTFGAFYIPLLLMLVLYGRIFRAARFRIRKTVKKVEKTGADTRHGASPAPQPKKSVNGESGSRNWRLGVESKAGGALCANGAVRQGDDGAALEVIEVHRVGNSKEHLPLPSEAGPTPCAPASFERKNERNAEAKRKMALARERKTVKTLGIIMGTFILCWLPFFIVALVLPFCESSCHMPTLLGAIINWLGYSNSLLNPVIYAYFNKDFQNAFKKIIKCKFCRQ
Procedure: as §1
as §3, with “Association kinetics were performed at 5 different radioligand concentrations optimized for each receptor (see Table 3 below) to determine 5 different kobs.” left out
Determination of the Koff constant. […] The samples were incubated as reported in Table 4 below at a temperature optimized for each receptor until binding equilibrium was reached as determined by the association kinetics experiment. […] After washing the filters 5 times with 0.5 mL of ice-cold washing buffer, 50 μL of Microscint 20 (Packard) were added to the filters and the plates were incubated 15 min on an orbital shaker and then counted for 1 min/well. […]
(§5) Determination of IC50 and Ki constant for each test compound. […] After washing the filters 5 times with 0.5 mL of ice-cold washing buffer, 50 μL of Microscint 20 (Packard) were added to the filters and the plates were incubated 15 min on an orbital shaker and then counted for 1 min/well. […]
(§6) Determination of kon and koff constants for each test compound. Each compound was first assessed in a pilot experiment to evaluate its effect on the kinetic binding of each receptor-radioligand pair. […]

human 5-HT2B receptor = molecular target: T3, human 5-HT2B receptor (Homo sapiens, UniProt P41595); settings: 5-HT2B
T3 construct: purchased Euroscreen; host or cells: CHO-K1
Procedure: as §1, §2, §3, §4, §5, §6

T3 sequence (P41595 whole entry): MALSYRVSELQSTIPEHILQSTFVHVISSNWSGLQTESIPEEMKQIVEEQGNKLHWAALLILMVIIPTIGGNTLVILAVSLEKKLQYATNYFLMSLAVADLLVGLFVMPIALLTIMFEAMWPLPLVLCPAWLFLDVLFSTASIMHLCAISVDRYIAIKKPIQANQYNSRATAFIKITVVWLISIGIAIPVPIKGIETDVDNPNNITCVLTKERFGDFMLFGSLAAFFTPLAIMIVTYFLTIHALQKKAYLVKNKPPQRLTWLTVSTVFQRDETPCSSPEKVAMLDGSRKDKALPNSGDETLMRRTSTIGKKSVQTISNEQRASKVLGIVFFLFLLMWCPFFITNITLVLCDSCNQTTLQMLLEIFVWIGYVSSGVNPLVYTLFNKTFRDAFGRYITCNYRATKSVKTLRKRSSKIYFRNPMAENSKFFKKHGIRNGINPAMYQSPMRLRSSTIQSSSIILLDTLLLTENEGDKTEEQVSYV
T1 sequence (P28221 whole entry): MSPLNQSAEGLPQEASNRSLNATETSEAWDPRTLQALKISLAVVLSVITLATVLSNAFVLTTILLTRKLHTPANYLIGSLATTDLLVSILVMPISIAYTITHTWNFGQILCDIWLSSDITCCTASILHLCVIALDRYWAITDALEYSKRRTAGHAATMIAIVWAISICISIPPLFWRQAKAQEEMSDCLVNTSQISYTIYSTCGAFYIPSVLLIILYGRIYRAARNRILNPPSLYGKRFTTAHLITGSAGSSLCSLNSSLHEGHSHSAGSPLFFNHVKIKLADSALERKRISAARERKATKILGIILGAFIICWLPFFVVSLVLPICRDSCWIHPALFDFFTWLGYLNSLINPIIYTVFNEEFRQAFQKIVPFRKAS

With `CNS(=O)(=O)Cc1ccc2[nH]cc(CCN(C)C)c2c1` [Sumatriptan, sumatriptan] the “Avg Dissociation half-life” value (human 5-HT1D receptor) was 5.4 min, the “Avg Dissociation half-life” value (human 5-HT1A receptor) was 65.4 min and the “Avg Dissociation half-life” value (human 5-HT2B receptor) was 22.2 min. The IC50 (human 5-HT2B receptor; [3H]-Mesulergine, read-out: IC50 from binding assay) was 19.9 µM.
